Test results reported in US20150065544A1, “THERAPEUTIC AGENT AND PREVENTIVE AGENT FOR DEMYELINATING DISEASE” (OSAKA UNIVERSITY, priority 2011, published 2015).

Legend:
[1] = tested on: mouse experimental autoimmune encephalomyelitis (EAE) models; test: Histopathological examination of spinal cord tissues of EAE mice; format: in vivo, mouse (SJL/J); settings: Day 16 post-immunization
[2] = tested on: mouse experimental autoimmune encephalomyelitis (EAE) models; test: Clinical symptom scores in mouse experimental autoimmune encephalomyelitis (EAE) model; format: in vivo, mouse (SJL/J); settings: Day 10 to Day 44 after immunization, versus tap water group 1, FIG. 1
Protocol: In mouse experimental autoimmune encephalomyelitis (EAE) models, which are MS animal models, the effects of 2-(3-cyano-4-isobutyloxyphenyl)-4-methyl-5-thiazolecarboxylic acid (Compound A) were investigated. Proteolipid protein (PLP) and complete Freund's adjuvant were administered subcutaneously to 8-week-old female SJL/J mice for immunization to induce EAE. The animals were divided into 3 groups; tap water, 1.5 mg/kg/day of Compound A and 0.75 mg/kg/day of Compound A were administered to the first, second and third group, respectively, by administration in drinking water from Day 10 to Day 44 after the immunization day. Neurological symptoms in the extremities were monitored daily from the day of immunization to Day 44 post-immunization, and the observations were scored as clinical symptoms (Vsevolod Smolianov, et al., Alteration of T cell cytokine production in PLPp-139-151-induced EAE in SJL mice by animmunostimulatory CpG Oligonucleotide. Journal of Neuroinflammation 2011, 8:59).

Cc1nc(-c2ccc(OCC(C)C)c(C#N)c2)sc1C(=O)O [Compound A, 2-(3-cyano-4-isobutyloxyphenyl)-4-methyl-5-thiazolecarboxylic acid]
Inflammation in the spinal cord tissues (iNOS-positive cells, activated macrophages, activation of astrocytes) ([1]; conclusion from FIG. 2): suppressed inflammation in the tissues
Staining of inducible nitric oxide synthase (iNOS), macrophages and astrocytes in spinal cord tissues ([1]; group 3: 0.75 mg/kg/day, versus tap water group 1, FIG. 2): weak
Clinical symptoms of EAE (neurological symptom scores) ([2]; group 2: 1.5 mg/kg/day in drinking water): suppressed
Clinical symptoms of EAE (neurological symptom scores) ([2]; group 3: 0.75 mg/kg/day in drinking water): suppressed
